Columns and labels:
Format in all cases: in vivo
[1] = test system: Italian ryegrass (Lolium mutiflorum); assay: Test C preemergence, visual plant response rating
Method in brief: (§1)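 Compounds in a non-phytotoxic solvent with surfactant were applied as a directed soil spray preemergence or to 2–10 cm, one- to two-leaf plants postemergence, in loam–sand soil. After about 10 d in a greenhouse, injury was visually rated against untreated controls on a 0–100 scale (100 = complete control).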

[2] = test system: foxtail, giant (giant foxtail, Setaria faberi); assay: Test C preemergence, visual plant response rating
Method in brief: as §1

[3] = test system: kochia (Bassia scoparia); assay: Test C preemergence, visual plant response rating
Method in brief: as §1

[4] = test system: pigweed (Amaranthus retroflexus); assay: Test C preemergence, visual plant response rating
Method in brief: as §1

[5] = test system: barnyardgrass (Echinochloa crus-galli); assay: Test C preemergence, visual plant response rating
Method in brief: as §1

[6] = test system: ragweed (common ragweed, Ambrosia artemisiifolia); assay: Test C preemergence, visual plant response rating
Method in brief: as §1

[7] = test system: duck salad (Heteranthera limosa); assay: Test D flooded paddy test, visual plant response rating; settings: 250 g ai/ha, scale 0 to 100 (0 no effect, 100 complete control), 13 to 15 d
Method in brief: (§2)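 2-leaf plants, flooded 3 cm, cpd into paddy water; greenhouse 13–15 d; visual rating vs controls, 0 = no effect, 100 = complete control; dash = no result.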

[8] = test system: rice (Oryza sativa); assay: as above; settings: 250 g ai/ha, scale 0 to 100 (0 no effect, 100 complete control), 13 to 15 d
Method in brief: as §2

[9] = test system: sedge umbrella (small-flower umbrella sedge, Cyperus difformis); assay: as above; settings: 250 g ai/ha, scale 0 to 100 (0 no effect, 100 complete control), 13 to 15 d
Method in brief: as §2

[10] = test system: barnyardgrass (Echinochloa crus-galli); assay: as above; settings: 250 g ai/ha, scale 0 to 100 (0 no effect, 100 complete control), 13 to 15 d
Method in brief: as §2

[11] = test system: wheat (Triticum aestivum); assay: Test C postemergence, visual plant response rating
Method in brief: as §1

[12] = test system: corn (Zea mays); assay: Test C postemergence, visual plant response rating
Method in brief: as §1

[13] = test system: Italian ryegrass (Lolium mutiflorum); assay: Test C postemergence, visual plant response rating
Method in brief: as §1

[14] = test system: galium (catchweed bedstraw, Galium aparine); assay: Test C postemergence, visual plant response rating
Method in brief: as §1

[15] = test system: blackgrass (Alopecurus myosuroides); assay: Test C postemergence, visual plant response rating
Method in brief: as §1

[16] = test system: foxtail, giant (giant foxtail, Setaria faberi); assay: Test C postemergence, visual plant response rating
Method in brief: as §1

[17] = test system: kochia (Bassia scoparia); assay: Test C postemergence, visual plant response rating
Method in brief: as §1

[18] = test system: pigweed (Amaranthus retroflexus); assay: Test C postemergence, visual plant response rating
Method in brief: as §1

[19] = test system: barnyardgrass (Echinochloa crus-galli); assay: Test C postemergence, visual plant response rating
Method in brief: as §1

[20] = test system: ragweed (common ragweed, Ambrosia artemisiifolia); assay: Test C postemergence, visual plant response rating
Method in brief: as §1

[21] = Test C, 31 g ai/ha, 0 is no effect, 100 is complete control
[22] = Test C, postemergence, 125 g ai/ha
[23] = Test C, 125 g ai/ha, 0 is no effect, 100 is complete control

Compound	Ryegrass, Italian plant response rating (0 to 100 scale) [1, 21]	Foxtail, Giant plant response rating (0 to 100 scale) [2, 21]	Kochia plant response rating (0 to 100 scale) [3, 21]	Pigweed plant response rating (0 to 100 scale) [4, 21]	Barnyardgrass plant response rating (0 to 100 scale) [5, 21]	Ragweed plant response rating (0 to 100 scale) [6, 21]	Plant response rating, Ducksalad (Flood) [7]	Plant response rating, Rice (Flood) [8]	Plant response rating, Sedge, Umbrella (Flood) [9]	Plant response rating, Barnyardgrass (Flood) [10]	Wheat plant response rating (0 to 100 scale) ([11]; Postemergence, 31 g ai/ha)	Wheat plant response rating (0 to 100 scale) [11, 22]	Corn plant response rating (0 to 100 scale) ([12]; Postemergence, 31 g ai/ha)	Corn plant response rating (0 to 100 scale) [12, 22]	Ryegrass, Italian plant response rating (0 to 100 scale) ([13]; Postemergence, 31 g ai/ha)	Ryegrass, Italian plant response rating (0 to 100 scale) [13, 22]	Galium plant response rating (0 to 100 scale) ([14]; Postemergence, 31 g ai/ha)	Galium plant response rating (0 to 100 scale) [14, 22]	Blackgrass plant response rating (0 to 100 scale) ([15]; Postemergence, 31 g ai/ha)	Blackgrass plant response rating (0 to 100 scale) [15, 22]	further results
C#CCON=C(c1ccc(Cl)c(Cl)c1)c1c(O)c(C)nn(C)c1=O [Compound 178]	0	10	0	20	30	0	0	0	0	0	0	80	0	10	20	90	40	80	0	30	Ryegrass, Italian plant response rating (0 to 100 scale) ([1]; 125 g ai/ha): 70; Foxtail, Giant plant response rating (0 to 100 scale) ([2]; 125 g ai/ha): 60; Kochia plant response rating (0 to 100 scale) ([3]; 125 g ai/ha): 0; Pigweed plant response rating (0 to 100 scale) ([4]; 125 g ai/ha): 70; Barnyardgrass plant response rating (0 to 100 scale) ([5]; 125 g ai/ha): 50; Ragweed plant response rating (0 to 100 scale) ([6]; 125 g ai/ha): 40; Foxtail, Giant plant response rating (0 to 100 scale) ([16]; Postemergence, 31 g ai/ha): 10; Foxtail, Giant plant response rating (0 to 100 scale) [16, 22]: 30; Kochia plant response rating (0 to 100 scale) ([17]; Postemergence, 31 g ai/ha): 40; Kochia plant response rating (0 to 100 scale) [17, 22]: 70; Pigweed plant response rating (0 to 100 scale) ([18]; Postemergence, 31 g ai/ha): 20; Pigweed plant response rating (0 to 100 scale) [18, 22]: 40; Barnyardgrass plant response rating (0 to 100 scale) ([19]; Postemergence, 31 g ai/ha): 20; Barnyardgrass plant response rating (0 to 100 scale) [19, 22]: 50; Ragweed plant response rating (0 to 100 scale) ([20]; Postemergence, 31 g ai/ha): 0; Ragweed plant response rating (0 to 100 scale) [20, 22]: 40
Cc1nn(C)c(=O)c(/C(=N/OC(C)C)c2cc(Cl)cc(Cl)c2F)c1O [Compound 179]	100	100	90	100	90	90	80	70	95	95	80	100	30	80	90	100	100	100	80	90	Ryegrass, Italian plant response rating (0 to 100 scale) ([1]; 125 g ai/ha): 100; Foxtail, Giant plant response rating (0 to 100 scale) ([2]; 125 g ai/ha): 100; Kochia plant response rating (0 to 100 scale) ([3]; 125 g ai/ha): 90; Pigweed plant response rating (0 to 100 scale) ([4]; 125 g ai/ha): 100; Barnyardgrass plant response rating (0 to 100 scale) ([5]; 125 g ai/ha): 100; Ragweed plant response rating (0 to 100 scale) ([6]; 125 g ai/ha): 100; Foxtail, Giant plant response rating (0 to 100 scale) ([16]; Postemergence, 31 g ai/ha): 90; Foxtail, Giant plant response rating (0 to 100 scale) [16, 22]: 100; Kochia plant response rating (0 to 100 scale) ([17]; Postemergence, 31 g ai/ha): 80; Kochia plant response rating (0 to 100 scale) [17, 22]: 100; Pigweed plant response rating (0 to 100 scale) ([18]; Postemergence, 31 g ai/ha): 100; Pigweed plant response rating (0 to 100 scale) [18, 22]: 100; Barnyardgrass plant response rating (0 to 100 scale) ([19]; Postemergence, 31 g ai/ha): 90; Barnyardgrass plant response rating (0 to 100 scale) [19, 22]: 80; Ragweed plant response rating (0 to 100 scale) ([20]; Postemergence, 31 g ai/ha): 100; Ragweed plant response rating (0 to 100 scale) [20, 22]: 100
C#CCO/N=C(\c1c(O)c(C)nn(C)c1=O)c1cc(Cl)cc2ccccc12 [Compound 191]	30	70	10	80	30	50	75	60	80	70	0	70	10	60	0	80	70	100	80	70	Ryegrass, Italian plant response rating (0 to 100 scale) ([1]; 125 g ai/ha): 80; Foxtail, Giant plant response rating (0 to 100 scale) ([2]; 125 g ai/ha): 90; Kochia plant response rating (0 to 100 scale) ([3]; 125 g ai/ha): 60; Pigweed plant response rating (0 to 100 scale) ([4]; 125 g ai/ha): 100; Barnyardgrass plant response rating (0 to 100 scale) ([5]; 125 g ai/ha): 90; Ragweed plant response rating (0 to 100 scale) ([6]; 125 g ai/ha): 80; Foxtail, Giant plant response rating (0 to 100 scale) ([16]; Postemergence, 31 g ai/ha): 70; Foxtail, Giant plant response rating (0 to 100 scale) [16, 22]: 80; Kochia plant response rating (0 to 100 scale) ([17]; Postemergence, 31 g ai/ha): 50; Kochia plant response rating (0 to 100 scale) [17, 22]: 80; Pigweed plant response rating (0 to 100 scale) ([18]; Postemergence, 31 g ai/ha): 90; Pigweed plant response rating (0 to 100 scale) [18, 22]: 100; Barnyardgrass plant response rating (0 to 100 scale) ([19]; Postemergence, 31 g ai/ha): 80; Barnyardgrass plant response rating (0 to 100 scale) [19, 22]: 90; Ragweed plant response rating (0 to 100 scale) ([20]; Postemergence, 31 g ai/ha): 70; Ragweed plant response rating (0 to 100 scale) [20, 22]: 80
C#CCO/N=C(/c1c(O)c(C)nn(C)c1=O)c1cc(Cl)cc2ccccc12 [Compound 192]	10	60	0	40	30	30	70	0	70	50	0	50	20	30	20	70	80	100	40	70	Ryegrass, Italian plant response rating (0 to 100 scale) [1, 23]: 70; Foxtail, Giant plant response rating (0 to 100 scale) [2, 23]: 90; Kochia plant response rating (0 to 100 scale) [3, 23]: 20; Pigweed plant response rating (0 to 100 scale) [4, 23]: 100; Barnyardgrass plant response rating (0 to 100 scale) [5, 23]: 90; Ragweed plant response rating (0 to 100 scale) [6, 23]: 70; Foxtail, Giant plant response rating (0 to 100 scale) ([16]; Postemergence, 31 g ai/ha): 70; Foxtail, Giant plant response rating (0 to 100 scale) [16, 22]: 80; Kochia plant response rating (0 to 100 scale) ([17]; Postemergence, 31 g ai/ha): 30; Kochia plant response rating (0 to 100 scale) [17, 22]: 60; Pigweed plant response rating (0 to 100 scale) ([18]; Postemergence, 31 g ai/ha): 50; Pigweed plant response rating (0 to 100 scale) [18, 22]: 80; Barnyardgrass plant response rating (0 to 100 scale) ([19]; Postemergence, 31 g ai/ha): 80; Barnyardgrass plant response rating (0 to 100 scale) [19, 22]: 90; Ragweed plant response rating (0 to 100 scale) ([20]; Postemergence, 31 g ai/ha): 80; Ragweed plant response rating (0 to 100 scale) [20, 22]: 90

Reference: patent publication US20210045385A1, “PYRIDAZINONE-SUBSTITUTED KETOXIMES AS HERBICIDES” (FMC Corporation, priority 2018, published 2021)
